The text below walks through data of patent US5726159A, “Antithrombotic agents” (Eli Lilly and Company, priority 1995, dated 1998).

Where a name gives a salt, the structure may show the parent alone.

The test system of one data set is thrombin. The settings on record: Bajusz et al., J. Med. Chem. 1990; cited from earlier work.
The target in another data set is factor Xa (Homo sapiens, UniProt P00742). Put plainly: Kass for factor Xa, chromogenic substrate. It counts as biochemical. The method, then: (§1) By substantially following the procedures described above for human thrombin, and using other human blood coagulation system serine proteases and proteases of the fibrinolytic system with the appropriate chromogenic substrates, identified below, selectivity of the compounds of the present invention with respect to the coagulation factor serine proteases and with respect to the fibrinolytic system serine proteases are evaluated as well as their substantial lack of interference with serine proteases of the fibrinolytic system. […] This would be important to the therapeutic use of such agents as an adjunct to streptokinase, t-PA or urokinase thrombolytic therapy and to the use of such agents as an endogenous fibrinolysis-sparing (with respect to t-PA and urokinase) antithrombotic agent. In addition to the lack of interference with the amidase activity of the fibrinolytic proteases, such fibrinolytic system sparing can be studied by the use of human plasma clots and their lysis by the respective fibrinolytic plasminogen activators.
Chain of factor Xa (P00742 235-488 limits assumed): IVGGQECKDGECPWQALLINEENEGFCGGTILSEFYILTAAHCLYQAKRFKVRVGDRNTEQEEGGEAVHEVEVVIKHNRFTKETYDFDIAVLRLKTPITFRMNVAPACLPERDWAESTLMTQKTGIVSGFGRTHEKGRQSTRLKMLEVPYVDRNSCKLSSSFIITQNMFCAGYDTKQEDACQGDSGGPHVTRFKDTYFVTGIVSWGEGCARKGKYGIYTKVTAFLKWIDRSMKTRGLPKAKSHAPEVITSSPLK
Chain of factor Xa (P00742 41-179 partner limits assumed): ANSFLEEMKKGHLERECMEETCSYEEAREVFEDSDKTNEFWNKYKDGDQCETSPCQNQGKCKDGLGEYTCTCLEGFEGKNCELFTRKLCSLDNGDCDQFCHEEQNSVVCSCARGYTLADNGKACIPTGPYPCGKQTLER
(§2) Chromogenic substrates: N-Benzoyl-Ile-Glu-Gly-Arg-p-nitroanilide (for factor Xa); N-Cbz-D-Arg-Gly-Arg-p-nitroanilide (for factor IXa assay as the factor Xa substrate); Pyroglutamyl-Pro-Arg-p-nitroanilide (for Factor XIa and for aPC); H-D-Pro-Phe-Arg-p-nitroanilide (for factor XIIa); and Pyroglutamyl-Gly-Arg-p-nitroanilide (for urokinase); are purchased from KabiVitrnm, Stockholm, Sweden, or from Midwest Biotech, Fishers, Ind. Bovine trypsin is purchased from Worthington Biochemicals, Freehold, N.J., and human plasma kallikrein from Kabi Vitrum, Stockholm, Sweden. Chromogenic substrate H-D-Pro-Phe-Arg-p-nitroanilide for plasma kallikrein is purchased from Kabi Vitrum, Stockholm, Sweden. N-Benzoyl-Phe-Val-Arg-p-nitroanilide, the substrate for human thrombin and for trypsin, is synthesized according to procedures described above for the compounds of the present invention, using known methods of peptide coupling from commercially available reactants or purchased from Midwest Biotech, Fishers, Ind.

For data set [1], the system named is Human plasma. Put plainly: Human plasma anticoagulation, thrombin time (TT). The data set is classed as biochemical. The following applies: concentration required to double the clotting time. In a few lines:
(§3)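 Values are concentrations estimated by linear extrapolation to double the clotting time in human plasma containing test compound across a wide range. Thrombin time was triggered with bovine thrombin at 10 NIH units/mL plus saline, and prothrombin time with Thromboplastin-C plus saline. For APTT, plasma sat with Actin reagent for 120 seconds before 0.02M CaCl2.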

In data set [2] the test system is Human plasma. Put plainly: Human plasma anticoagulation, activated partial thromboplastin time (APTT). It counts as biochemical. The settings on record: concentration required to double the clotting time. In a few lines: as §3
Data set [3] deals with Human plasma. Put plainly: Human plasma anticoagulation, prothrombin time (PT). The data set is classed as biochemical. The settings on record: concentration required to double the clotting time. In a few lines:
as §3

The target of a further data set is T1, t-PA (Homo sapiens, UniProt P00750).
T1 construct: purchased American Diagnostica, Greenwich, Conn
T1 sequence (P00750 36-562): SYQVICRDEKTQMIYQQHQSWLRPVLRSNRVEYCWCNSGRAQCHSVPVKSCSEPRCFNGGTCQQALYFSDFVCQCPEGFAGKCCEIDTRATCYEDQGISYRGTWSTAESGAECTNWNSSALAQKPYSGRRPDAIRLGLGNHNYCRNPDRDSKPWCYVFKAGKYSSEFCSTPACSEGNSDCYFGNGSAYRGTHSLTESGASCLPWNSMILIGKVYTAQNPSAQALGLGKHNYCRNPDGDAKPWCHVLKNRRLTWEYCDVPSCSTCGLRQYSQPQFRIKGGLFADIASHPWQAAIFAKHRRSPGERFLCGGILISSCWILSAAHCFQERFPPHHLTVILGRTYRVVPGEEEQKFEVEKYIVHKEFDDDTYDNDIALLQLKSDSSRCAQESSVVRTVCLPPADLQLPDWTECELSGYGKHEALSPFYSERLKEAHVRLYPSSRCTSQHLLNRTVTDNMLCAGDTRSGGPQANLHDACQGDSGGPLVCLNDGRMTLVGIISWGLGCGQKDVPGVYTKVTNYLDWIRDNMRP
Briefly: Kass for t-PA, chromogenic substrate. It counts as biochemical. The method, then:
as §1

The nature of data set [4]: Index of bioavailability (% relative activity from plasma TT, oral vs i.v.). It counts as in vivo. The following applies: dose-adjusted AUC of plasma TT, p.o. vs i.v. The procedure: Parke Davis) at 37° C. […] Assays are done in duplicate and averaged. […] Each sample population represented alternating sequential time points.
The next data set addresses human thrombin (Homo sapiens, UniProt P00734). Briefly: Inhibition of thrombin amidase activity (Kass), chromogenic substrate. It counts as biochemical. The settings on record: association constant, mean over concentrations.
The target in another data set is T2, Bovine trypsin (Bos taurus, UniProt P00760).
T2 construct: Bovine trypsin is purchased from Worthington Biochemicals, Freehold, N.J; purchased Worthington Biochemicals, Freehold, N.J
T2 sequence (P00760 24-246): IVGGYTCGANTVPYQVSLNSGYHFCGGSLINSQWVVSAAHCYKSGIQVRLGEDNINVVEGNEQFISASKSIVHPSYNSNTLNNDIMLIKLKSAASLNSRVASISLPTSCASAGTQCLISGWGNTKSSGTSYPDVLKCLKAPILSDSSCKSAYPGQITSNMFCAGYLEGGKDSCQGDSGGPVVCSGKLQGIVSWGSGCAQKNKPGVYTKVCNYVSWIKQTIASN
Put plainly: Kass for trypsin, chromogenic substrate. The data set is classed as biochemical. The method, then:
as §1, §2

In another data set the target is T3, Human plasmin (Homo sapiens, UniProt P00747).
T3 construct: Human plasmin is purchased from Boehringer Mannheim, Indianapolis, Ind; purchased Boehringer Mannheim, Indianapolis, Ind
T3 sequence (P00747 581-810 limits assumed): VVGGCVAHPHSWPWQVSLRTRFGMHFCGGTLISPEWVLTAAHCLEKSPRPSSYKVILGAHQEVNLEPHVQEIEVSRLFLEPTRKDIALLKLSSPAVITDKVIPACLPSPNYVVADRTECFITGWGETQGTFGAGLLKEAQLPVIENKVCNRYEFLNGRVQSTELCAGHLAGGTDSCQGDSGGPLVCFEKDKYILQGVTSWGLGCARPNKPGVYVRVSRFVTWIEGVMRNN
T3 sequence (P00747 97-580 partner limits assumed): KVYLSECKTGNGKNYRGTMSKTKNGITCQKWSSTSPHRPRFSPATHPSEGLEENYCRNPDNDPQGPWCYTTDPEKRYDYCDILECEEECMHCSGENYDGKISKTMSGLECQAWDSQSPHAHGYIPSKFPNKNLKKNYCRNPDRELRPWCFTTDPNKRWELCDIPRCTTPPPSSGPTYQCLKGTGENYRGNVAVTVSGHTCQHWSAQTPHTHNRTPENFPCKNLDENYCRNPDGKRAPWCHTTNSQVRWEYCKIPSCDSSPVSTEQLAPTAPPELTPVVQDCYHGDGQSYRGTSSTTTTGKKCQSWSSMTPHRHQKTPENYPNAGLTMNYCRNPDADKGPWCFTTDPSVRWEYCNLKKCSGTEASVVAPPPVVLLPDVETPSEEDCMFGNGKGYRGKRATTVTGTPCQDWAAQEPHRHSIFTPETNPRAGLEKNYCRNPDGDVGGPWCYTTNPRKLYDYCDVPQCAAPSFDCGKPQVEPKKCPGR
Put plainly: Kass for plasmin, chromogenic substrate. The data set is classed as biochemical. The procedure: as §1

The conditions of data set [5]: Simoons et al., Circulation 1994; cited from earlier work.

As for `CN[C@H](Cc1ccccc1)C(=O)N1CCC[C@H]1C(=O)N[C@H](C=O)CCCNC(=N)N` [D-MePhe-Pro-Arg-H], the “direct inhibition of thrombin” value with thrombin is recorded as “potent direct inhibition of thrombin”.
Take `CCS(=O)(=O)N[C@H](Cc1ccccc1)C(=O)N1CCC[C@H]1C(=O)NCCc1cccc(NC(=N)N)c1` [Example 37, EtSO2 -D-Phe-Pro-m-NHCH2 CH2 C6 H4 NHC(NH)NH2.HCl]: the “Kass Xa” value on factor Xa is < 0.009 × 10^6 (L/mole). Moreover, the “2x Clotting time TT” value in the data set on Human plasma [1] is given as > 9,000 ng/mL. In addition, in the data set on Human plasma [2], the “2x Clotting time APTT” value is on record as > 9,000 ng/mL. For the same compound, the “2x Clotting time PT” value in the data set on Human plasma [3] is on record as > 9,000 ng/mL.
Take `CCS(=O)(=O)N[C@H](Cc1ccccc1)C(=O)N1CCC[C@H]1C(=O)NCCCCNC(=N)N` [Example 1, EtSO2 -D-Phe-Pro-Agm.HCl]: on t-PA, the “Kass t-PA” value came to 0.082. Besides, in the data set with Human plasma [1], the “2x Clotting time TT” value is reported as 250 ng/mL. In addition, in [4], the “% oral/i.v. activity (Rat)” value stood at 8%.
Take `CC(C)(C)OC(=O)N[C@H](Cc1ccccc1)C(=O)N1CCC[C@H]1C(=O)N[C@H](C=O)CCCNC(=N)N` [Boc-D-Phe-Pro-Arg-H]: in the data set with thrombin, the “direct inhibition of thrombin” value is listed as “potent direct inhibition of thrombin”.
As for “D-hPro-N(PhCH2 CH2)Gly-p-NHCH2 -C6 H4 C(NH)NH2.2HCl [Example 21]”, on human thrombin, the “Kass Human Thrombin” value is recorded as 3.6 × 10^6 (L/mole). The “Kass Xa” value at factor Xa is 0.62 × 10^6 (L/mole). Also, the “Kass Trypsin” value at Bovine trypsin was 0.96 × 10^6 (L/mole). Also, on Human plasmin, the “Kass Plasmin” value is listed as 0.031 × 10^6 (L/mole). For the same compound, the “Kass t-PA” value at t-PA is 0.002 × 10^6 (L/mole). For the same compound, in the data set with Human plasma [1], the “2x Clotting time TT” value is reported as 160 ng/mL. Further, the “2x Clotting time APTT” value in the data set on Human plasma [2] is reported as 2,000 ng/mL. In the data set with Human plasma [3], the “2x Clotting time PT” value is given as 1,000 ng/mL.
For NMI-D-Phe-Pro-Agm.HCl [Example 4], on human thrombin, the “Kass Human Thrombin” value is 13. × 10^6 (L/mole). The “2x Clotting time TT” value with Human plasma [1] stood at 230 ng/mL.
As to “D-hPro-Pro(4-cis-PhO)-p-NHCH2 -C6 H4 C(NH)NH2.2HCl [Example 22]”, on human thrombin, the “Kass Human Thrombin” value is recorded as 3.0 × 10^6 (L/mole). The “Kass Xa” value at factor Xa is given as 0.043 × 10^6 (L/mole). For the same compound, the “Kass Trypsin” value at Bovine trypsin is given as 8.5 × 10^6 (L/mole). In addition, the “Kass Plasmin” value at Human plasmin is reported as 0.042 × 10^6 (L/mole). Also, on t-PA, the “Kass t-PA” value was 0.004 × 10^6 (L/mole). Also, the “2x Clotting time TT” value in the data set on Human plasma [1] stood at 170 ng/mL. Also, in the data set with Human plasma [2], the “2x Clotting time APTT” value is on record as 2,300 ng/mL. The “2x Clotting time PT” value in the data set with Human plasma [3] is recorded as 1,000 ng/mL.
With “EtSO2 -Phg-cis-Ohi-p-NHCH2 C6 H4 C(NH)NH2.HCl [Example 44]”, on factor Xa, the “Kass Xa” value amounted to 0.66. In addition, the “Kass Plasmin” value on Human plasmin is on record as 1.8. Moreover, the “Kass t-PA” value on t-PA is reported as 0.04. The “2x Clotting time TT” value with Human plasma [1] is recorded as 4. ng/mL. Besides, the “2x Clotting time APTT” value in the data set with Human plasma [2] is given as 100 ng/mL. The “2x Clotting time PT” value in the data set on Human plasma [3] is on record as 170 ng/mL.
In the case of “EtSO2 -D-Phe-Pro-p-NHCH2 -C6 H4 C(=NH)NH2.HCl [Example 23]”, the “Kass Human Thrombin” value at human thrombin is listed as 770 × 10^6 (L/mole). The “Kass Xa” value on factor Xa is 0.14 × 10^6 (L/mole). The “Kass Trypsin” value on Bovine trypsin is recorded as 21 × 10^6 (L/mole). For the same compound, at Human plasmin, the “Kass Plasmin” value is on record as 0.44 × 10^6 (L/mole). For the same compound, on t-PA, the “Kass t-PA” value is given as 0.31 × 10^6 (L/mole). Moreover, in the data set with Human plasma [1], the “2x Clotting time TT” value is on record as 7 ng/mL. For the same compound, the “2x Clotting time APTT” value in the data set on Human plasma [2] came to 86 ng/mL. Moreover, the “2x Clotting time PT” value in the data set on Human plasma [3] is reported as 120 ng/mL.
Regarding `CN[C@H](Cc1ccccc1)C(=O)N1CCC[C@H]1C(=O)N[C@H](C=O)CCCNC(=N)N.O=S(=O)(O)O` [D-MePhe-Pro-Arg-H sulfate], in [5], the “anticoagulant activity in man” value is recorded as “anticoagulant in man”.
Take `N=C(N)c1ccc(CNC(=O)[C@@H]2CCCN2C(=O)[C@@H](CC2CCCCC2)NCCC(=O)O)cc1` [Example 52, HOOCCH2 CH2 -D-Cha-Pro-p-NHCH2 C6 H4 C(NH)NH2.HCl]: the “Kass Trypsin” value on Bovine trypsin is given as 47. × 10^6 (L/mole). Also, on t-PA, the “Kass t-PA” value is 0.01 × 10^6 (L/mole). The “2x Clotting time TT” value in the data set on Human plasma [1] is reported as 6 ng/mL. Further, the “2x Clotting time APTT” value in the data set with Human plasma [2] is 80 ng/mL. Besides, the “2x Clotting time PT” value in the data set on Human plasma [3] is given as 170 ng/mL.
For `N=C(N)c1ccc(CNC(=O)[C@@H]2C[C@@H]3CCCC[C@@H]3N2C(=O)[C@@H](Cc2ccccc2)NCC(=O)O)cc1` (relative stereo) [Example 47, HOOCCH2 -D-Phe-cis-Ohi-p-NHCH2 C6 H4 C(NH)NH2.HCl], the “Kass Trypsin” value on Bovine trypsin is recorded as 82. × 10^6 (L/mole). Also, the “Kass t-PA” value at t-PA is 0.01 × 10^6 (L/mole). The “2x Clotting time TT” value in the data set on Human plasma [1] is 12. ng/mL. In addition, in the data set with Human plasma [2], the “2x Clotting time APTT” value amounted to 140 ng/mL. Further, the “2x Clotting time PT” value in the data set with Human plasma [3] is 270 ng/mL.
In the case of “HO2 CCH2 -D-Cha-Pro-4-NHCH2 -2-amidinothiophene.HCl [Example 65]”, the “Kass Human Thrombin” value on human thrombin was 4,500 × 10^6 (L/mole). Moreover, the “Kass Trypsin” value at Bovine trypsin was 570. × 10^6 (L/mole). In addition, the “2x Clotting time TT” value with Human plasma [1] was determined as 1 ng/mL. Besides, the “2x Clotting time APTT” value in the data set with Human plasma [2] was found to be 48 ng/mL.
Take `CCS(=O)(=O)N[C@H](Cc1ccccc1)C(=O)N1CCC[C@H]1C(=O)NCCc1ccc(C(=N)N)cc1` [Example 26, EtSO2 -D-Phe-Pro-p-NHCH2 CH2 -C6 H4 C(=NH)NH2.HCl]: at human thrombin, the “Kass Human Thrombin” value is on record as 13. × 10^6 (L/mole). Further, on t-PA, the “Kass t-PA” value is 0.01 × 10^6 (L/mole). Also, the “2x Clotting time TT” value with Human plasma [1] is 37 ng/mL. In addition, in the data set with Human plasma [2], the “2x Clotting time APTT” value was 870 ng/mL. Besides, the “2x Clotting time PT” value in the data set with Human plasma [3] came out at 750 ng/mL.
With `N=C(N)NCCC[C@@H](C=O)NC(=O)[C@@H]1CCCN1C(=O)[C@H](N)Cc1ccccc1` [D-Phe-Pro-Arg-H], in the data set with thrombin, the “direct inhibition of thrombin” value was “potent direct inhibition of thrombin”.
Consider `N=C(N)c1ccc(CNC(=O)[C@@H]2C[C@@H]3CCCC[C@@H]3N2C(=O)[C@@H]2NCC[C@@H]3CCCC[C@@H]32)cc1` (relative stereo) [Example 42, D-1-Piq-cis-Ohi-p-NHCH2 C6 H4 C(NH)NH2.2HCl], for which the “Kass Human Thrombin” value on human thrombin is given as 38. × 10^6 (L/mole). For the same compound, the “Kass Trypsin” value at Bovine trypsin is reported as 43. × 10^6 (L/mole). In addition, the “Kass t-PA” value on t-PA is 0.01 × 10^6 (L/mole). Moreover, the “2x Clotting time TT” value with Human plasma [1] is given as 20 ng/mL. In the data set with Human plasma [2], the “2x Clotting time APTT” value came to 270 ng/mL. In addition, in the data set on Human plasma [3], the “2x Clotting time PT” value was 320 ng/mL.
